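Cells were grown in 96-well plates and exposed to each compound for 48 hours at five concentrations; endpoints were interpolated linearly between bracketing concentrations, or set to the highest concentration if not reached. At the GI50, growth is halved.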 Calls of active or inactive are those of the source. Cut-off read from the data, not from the text of the source: active = GI50 up to about 1.1 µM and inactive = higher.
Tests used:
Test in all cases: inhibition of tumour cell growth, NCI panel, 48 h
EKVX = system: EKVX
UACC-62 = system: UACC-62
Hs-578T = system: Hs-578T
KM12 = system: KM12
HCT-15 = system: HCT-15
MDA-MB-231 = system: MDA-MB-231
HL-60 = system: HL-60
UO-31 = system: UO-31
MOLT-4 = system: MOLT-4
SK-MEL-28 = system: SK-MEL-28
LOX IMVI = system: LOX IMVI
U-251 = system: U-251
786-0 = system: 786-0
MDA-MB-435 = system: MDA-MB-435
SK-OV-3 = system: SK-OV-3
SR = system: SR
SF-539 = system: SF-539
SK-MEL-5 = system: SK-MEL-5
HCC 2998 = system: HCC 2998
SNB-75 = system: SNB-75

Structure (SMILES)	GI50 (EKVX)	GI50 (UACC-62)	GI50 (Hs-578T)	GI50 (KM12)	GI50 (HCT-15) [µM]	GI50 (MDA-MB-231)	GI50 (HL-60)	GI50 (UO-31)	GI50 (MOLT-4)	GI50 (SK-MEL-28)	GI50 (LOX IMVI)	GI50 (U-251)	GI50 (786-0)	GI50 (MDA-MB-435)	GI50 (SK-OV-3)	GI50 (SR)	GI50 (SF-539)	GI50 (SK-MEL-5)	GI50 (HCC 2998)	GI50 (SNB-75)
O=C1C(=Cc2cccc(O)c2)N=C(c2ccccc2)N1n1c(-c2ccccc2)nc2ccccc2c1=O	34.9 µM (inactive)	19.7 µM (inactive)	14.3 µM (inactive)	24.9 µM (inactive)	34.7	36.9 µM (inactive)	25.2 µM (inactive)	27.2 µM (inactive)	15.9 µM (inactive)	25.2 µM (inactive)	23.4 µM (inactive)	35.4 µM (inactive)	39.8 µM (inactive)	35.6 µM (inactive)	33.3 µM (inactive)	16.4 µM (inactive)	17.9 µM (inactive)	23.7 µM (inactive)		
O=c1[nH]c(=O)n(C2COC(CO)C2O)cc1F (stereo not drawn)	89.9 µM (inactive)	22.1 µM (inactive)	> 100 µM (inactive)	> 100 µM (inactive)	16.4	> 100 µM (inactive)		14.6 µM (inactive)	39 µM (inactive)	26.7 µM (inactive)	11 µM (inactive)	72.9 µM (inactive)	70 µM (inactive)	48.9 µM (inactive)	74.6 µM (inactive)	95.3 µM (inactive)	3.52 µM (inactive)	21.4 µM (inactive)	8.73 µM (inactive)	31 µM (inactive)
Cc1nn2c(C(=O)N/N=C/c3ccc([N+](=O)[O-])cc3)c(C)nc2s1	> 100 µM (inactive)	> 100 µM (inactive)	> 100 µM (inactive)	> 100 µM (inactive)	> 100	24.1 µM (inactive)	> 100 µM (inactive)	34.4 µM (inactive)	41 µM (inactive)	> 100 µM (inactive)	> 100 µM (inactive)	23.6 µM (inactive)	> 100 µM (inactive)	> 100 µM (inactive)	28.4 µM (inactive)		31.4 µM (inactive)	> 100 µM (inactive)	> 100 µM (inactive)	50.5 µM (inactive)
O=[N+]([O-])/C(C(Cl)=C(Cl)Cl)=C(\N1CCCCC1)n1nnc2ccccc21	8.47 µM (inactive)	18.6 µM (inactive)	32.9 µM (inactive)	25.8 µM (inactive)	17.8	17.3 µM (inactive)		18.2 µM (inactive)	0.443 µM (active)	22.3 µM (inactive)	16.7 µM (inactive)	16.9 µM (inactive)	18.5 µM (inactive)	31.6 µM (inactive)	24.9 µM (inactive)	16.4 µM (inactive)	17.3 µM (inactive)	17.5 µM (inactive)		25.6 µM (inactive)
CCOC(=O)c1nnsc1NC(=O)NCCCCCCn1c(=O)n(CCCCCCNC(=O)Nc2snnc2C(=O)OCC)c(=O)n(CCCCCCNC(=O)Nc2snnc2C(=O)OCC)c1=O	60.4 µM (inactive)	17.3 µM (inactive)	13.7 µM (inactive)	93.3 µM (inactive)	> 100	15.2 µM (inactive)		45.4 µM (inactive)	31.1 µM (inactive)			19.3 µM (inactive)	16.7 µM (inactive)	63.7 µM (inactive)	40.2 µM (inactive)	> 100 µM (inactive)		71.1 µM (inactive)	39.5 µM (inactive)	29.1 µM (inactive)
COCN1C(=O)[C@@H]2C[C@@H](OC/C=C/CBr)CN2C(=O)c2ccccc21	23 µM (inactive)	19 µM (inactive)	26.5 µM (inactive)	22 µM (inactive)	17.9	17.5 µM (inactive)	6.27 µM (inactive)	18.9 µM (inactive)	17.7 µM (inactive)	18.9 µM (inactive)	2.04 µM (inactive)	14.5 µM (inactive)	21.5 µM (inactive)	14.9 µM (inactive)	33.3 µM (inactive)		17.5 µM (inactive)	14.4 µM (inactive)		10.7 µM (inactive)
C/C(=N\Nc1nc2ccccc2[nH]1)c1cnccn1	0.491 µM (active)	0.652 µM (active)	19.8 µM (inactive)	1.12 µM (active)	0.313	2.88 µM (inactive)	0.0589 µM (active)	0.548 µM (active)	0.232 µM (active)	0.506 µM (active)	0.361 µM (active)	0.628 µM (active)	0.263 µM (active)	0.822 µM (active)	0.607 µM (active)		0.713 µM (active)	0.881 µM (active)	19.6 µM (inactive)	3.61 µM (inactive)
CCCCCCNC(=O)c1cc(C#Cc2cc(OC)ccc2OC)ccc1OC	58.9 µM (inactive)		> 100 µM (inactive)	> 100 µM (inactive)	7.48	> 100 µM (inactive)		62.1 µM (inactive)	4.84 µM (inactive)	3.04 µM (inactive)	> 100 µM (inactive)	> 100 µM (inactive)	> 100 µM (inactive)	2.75 µM (inactive)	> 100 µM (inactive)	3.18 µM (inactive)		19.6 µM (inactive)	1.93 µM (inactive)	
